One experiment concerns TRPC5. The settings on record: ag. = agonistic effect; read-out: EC50 [nM] simple agonism, TRPC5; cited from earlier work.
A further experiment has as its target T1, TRPC4 (Mus musculus, UniProt Q9QUQ5).
T1 construct: expressed in transfected cells; host or cells: HEK293
T1 sequence (Q9QUQ5 1-890 isoform Q9QUQ5-2): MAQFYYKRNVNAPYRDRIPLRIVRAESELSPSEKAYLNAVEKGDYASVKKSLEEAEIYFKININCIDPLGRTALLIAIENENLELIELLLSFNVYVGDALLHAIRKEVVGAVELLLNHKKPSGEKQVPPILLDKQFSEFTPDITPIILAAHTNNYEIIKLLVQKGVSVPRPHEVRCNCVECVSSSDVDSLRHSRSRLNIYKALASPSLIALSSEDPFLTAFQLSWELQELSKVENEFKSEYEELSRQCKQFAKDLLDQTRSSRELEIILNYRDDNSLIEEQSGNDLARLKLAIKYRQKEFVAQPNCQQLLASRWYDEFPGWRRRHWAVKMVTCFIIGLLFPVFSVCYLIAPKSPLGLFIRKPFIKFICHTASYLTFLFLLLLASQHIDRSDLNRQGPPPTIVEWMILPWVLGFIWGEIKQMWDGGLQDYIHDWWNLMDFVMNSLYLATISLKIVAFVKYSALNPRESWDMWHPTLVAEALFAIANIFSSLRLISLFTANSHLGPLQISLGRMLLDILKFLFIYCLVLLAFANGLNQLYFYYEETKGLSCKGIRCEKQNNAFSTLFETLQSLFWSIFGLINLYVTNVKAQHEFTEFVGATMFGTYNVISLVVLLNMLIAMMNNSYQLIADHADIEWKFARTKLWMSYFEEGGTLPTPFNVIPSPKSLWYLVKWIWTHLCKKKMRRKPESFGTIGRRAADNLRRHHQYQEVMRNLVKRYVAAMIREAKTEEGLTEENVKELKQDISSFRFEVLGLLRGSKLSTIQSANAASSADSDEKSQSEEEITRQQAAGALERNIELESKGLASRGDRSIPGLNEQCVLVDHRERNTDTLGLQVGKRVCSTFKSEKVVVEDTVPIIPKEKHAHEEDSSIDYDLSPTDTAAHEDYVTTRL
The experiment is described as follows: Whole-cell patch clamp with monochromated photoswitching, TRPC4-expressing HEK293 cells. The settings on record: 10 nM, Vh −80 mV, action spectrum 330-505 nm. It counts as cell-based. (The patch-clamp technique gives a direct electrical read-out from membranes.)

Experiment [1] relates to Th+ neurons of Th-GCaMP6f-ΔTrpc5 mice. The experiment is described as follows: GCaMP6f Ca2+ imaging of Th+ neurons in arcuate nucleus brain slices with 355 nm photoswitching, Th-GCaMP6f-ΔTrpc5 (5ko) mice.
Description: slices through the ARC of mice expressing the Ca2+ indicator GCaMP6f in Th+ neurons (Fig. 4),
we investigated (1) whether Ca2+ responses at endogenous TRPC5 expression levels can be
TRPC5 expression using TRPC5-deficient brain slices, (3) whether a dose dependence could be
detected, and (4) whether there are properties in channel activity that can be distinguished between
concentration-response measurements (Fig. 5d).
The target in a further experiment is T2, EA-activated TRPC4 (Mus musculus, UniProt Q9QUQ5).
T2 construct: expressed in transfected cells; host or cells: HEK293-mTRPC4β-YFP
T2 sequence (Q9QUQ5 1-890 isoform Q9QUQ5-2): T1 sequence (Q9QUQ5 1-890 isoform Q9QUQ5-2)
The experiment is described as follows: FLIPR Ca2+ assay, E isomers silencing EA-activated TRPC4 (HEK293-mTRPC4β-YFP). It counts as cell-based. The text has this:
(2) The EC50 values are reported as the midpoints of unconstrained sigmoidal fits to the FLIPR data (Fig 1l and Supplementary Fig. 2): with different levels of channel activation / blocking and very different Hill slopes across different compounds, isomers, and the two channels. This argues that the midpoint values only capture one of the several important factors describing the […]
We believe that it is possible to derive indicative relative values for binding affinity comparing the E and Z isomers of the same compound using only the combination of FLIPR and ephys data as reported in this paper; this analysis is being developed in a separate paper (see also below).
Supplementary Table 1. Potencies on TRPC4/5 depicted as either simple agonistic potency (blue) or else inhibitory […]
. Z*-values refer to mostly-Z-isomer reached at PSS at 365 nm, E*-values refer to experiments that initially applied 100% E-isomer (thermally relaxed), though in both cases the Ca2+ imaging in FLIPR with Fluo4-AM uses 470 nm excitation, which may over time promote photoswitching towards a PSS that is intermediate between those of pure-365 nm and all-E; this is controlled for in the more reliable ephys measurements). (Table indices: a, data from ref7; b, data from ref2; c, data from ref3; d, data from ref8.) EC50 [nM] (for simple agonism or EA-competitive inhibition)
E-AzPico 90 (vs 30 nM EA) 67 (vs 30 nM EA) […]
orange: inhibitory effect ag.: agonistic effect
1.1.1 From always-active antagonists and agonists towards efficacy photoswitches […]
photoisomerising an azobenzene that is merged in at the C’4 position yielding the compounds […]
deliver (Fig. 1-2) is a powerful support for an efficacy switch interpretation. To indirectly support this further, we also measured the effects of E-AzPico and E-AzHC against EA-activated TRPC4/5. […]
to be an EA-competitive binder5,9,10), so their efficacy as single agent photoswitches results from E/Z-competitive binding that is determined by their PSS. […]
Supplementary Table 2. […] (a Inhibitory effect measured against 30 nM EA; b Inhibitory effect measured against 50 nM EA). […]

The text below walks through data of paper PMC12858405, “Ideal efficacy photoswitching for chromocontrol of TRPC4/5 channel functions in live tissues” (Nature Chemical Biology, 2026).

SMILES strings stand for the structures. pIC50: −log10 of the molar value.

The EC50 is the midpoint of the concentration-response curve. By pIC50 is commonly meant the negative decadic logarithm of the IC50, by convention in mol/L.

With `Cn1c(=O)n(CCCO)c(=O)c2c1nc(Oc1ccc(Cl)c(OC(F)(F)F)c1)n2Cc1ccc(Cl)cc1` [AM237, reference compound], in the experiment with TRPC5, the EC50 is 20 nM. Regarding `Cn1c(=O)n(CCCO)c(=O)c2c1nc(Oc1ccc(N=Nc3ccccc3)c(OC(F)(F)F)c1)n2Cc1ccc(Cl)cc1` [AzPico], the “Wavelength range for effective off-photoswitching (channel currents)” value on TRPC4 is 400-480 nm. With `Cn1c(=O)n(CCCO)c(=O)c2c1nc(Oc1ccc(N=Nc3ccccc3)c(Cl)c1)n2Cc1ccc(Cl)cc1` [AzHC], the “Ca2+ photoresponse in TRPC5-knockout slices” value in experiment [1] (500 nM, 355 nm pulse) is listed as “did not respond”. In addition, the “Change in spontaneous Ca2+ activity in TRPC5-deficient Th+ neurons vs before UV” value in experiment [1] (1 µM) is reported as “no change”.

Take `Cn1c(=O)n(CCCO)c(=O)c2c1nc(Oc1ccc(/N=N/c3ccccc3)c(OC(F)(F)F)c1)n2Cc1ccc(Cl)cc1` [E-AzPico]: the pIC50 on EA-activated TRPC4 (Inhibitory IC50 (versus 30 nM EA) TRPC4, E isomer, thermally relaxed, 30 nM EA) was 7.05; on EA-activated TRPC4 (Inhibitory IC50 (versus 50 nM EA) TRPC4, E isomer, 50 nM EA) it was 7.07.
